For the experiment, the system named is alloxan-induced diabetic mice. Nature of the experiment: In vivo anti-diabetic activity in alloxan-induced diabetic mice. Set-up: species or system albino mice (strain balb/c).

Here are results for one compound from paper PMC9700480 (Drug Design, Development and Therapy, 2022).

For the compound `C[C@H]1O[C@H](O[C@H]2[C@H](O)[C@@H](O)[C@@H](O[C@H]3[C@H](O)[C@@H](O)C(O)O[C@@H]3CO)O[C@@H]2CO)[C@H](O)[C@@H](O)[C@@H]1N[C@H]1C=C(CO)[C@@H](O)[C@H](O)[C@H]1O` (some centres unmarked) [Acarbose], the Creatinine content entry (day 21, compared with diabetic control) is listed as “significant (p < 0.05) decrease in creatinine content”. For the same compound, for the setting “day 21, FA2 at high dose”, the “level of insulin in serum” value is listed as 25 ± 3.1 pmol/L.
